How the values were obtained:
Type in all cases: functional
Rattus norvegicus [1] = organism: Rattus norvegicus; test: In vitro effect KCL-Evoked Giutamate at 0.1 nM
Rattus norvegicus [2] = organism: Rattus norvegicus; test: In vitro effect of compound on Basal Glutamate Efflux at 10.0 nM
Rattus norvegicus [3] = organism: Rattus norvegicus; test: In vitro effect KCL-Evoked Glutamate at 1.0 nM
Rattus norvegicus [4] = organism: Rattus norvegicus; test: In vitro effect of compound on Basal Glutamate Efflux at 1.0 nM
Rattus norvegicus [5] = organism: Rattus norvegicus; test: In vitro effect of compound on Basal Glutamate Efflux at 0.1 nM
Rattus norvegicus [6] = organism: Rattus norvegicus; test: In vitro effect KCL-Evoked Giutamate at 10.0 nM

`O=C(O)CCC(CP(=O)(O)O)C(=O)O` (stereo unspecified) was tested, and the Release (Rattus norvegicus [1]) was 316, the Efflux (Rattus norvegicus [2]) was 167% and the Release (Rattus norvegicus [3]) was 368. For the same compound, the Efflux (Rattus norvegicus [4]) was 137%, the Efflux (Rattus norvegicus [5]) was 151% and the Release (Rattus norvegicus [6]) was 437.
